“Also recorded” adds a separate entry of the source. Like-named read-outs stand apart in the source and are kept apart here.
How the values were obtained:
human KB cell cultures [1] = test system: human KB cell cultures
Method: (§1) The cytotoxicity of diaminosucrose platinum complexes was evaluated on human KB cell cultures as follows:
(§2) Graded doses of the respective diaminosucrose platinum (II) complexes tested contained in 0.1 ml of MEM medium were added to tube cultures of KB cells (contained in 1 ml of MEM medium with 4% fetal calf serum) immediately after seeding of ca. 2×10,000 cells/mi.
(§3) The incubated cultures were seeded every 3 days by 3 times dilution with the particular complex tested to maintain exponential cell growth.
(§4) After incubation the relative cytotoxic activity of the various platinum complexes was evaluated as follows:
(§5) Treated and untreated (control) tumor cell lines were viewed under the microscope and the number of dead cells quantified by visual means. Zero activity means that 100% of the treated cells survived, i.e., like the control.

E. coli = conditions: cited from earlier work
[2] = cells; cited from earlier work
human KB cell cultures [3] = assay: Cytotoxicity test of sucrose mono-, bis- and tris(platinum) complexes on human KB cell cultures (Example 11); format: cell-based; conditions: 10 μg/ml
Method: Cultures were seeded after 3 days by 3 times dilution with the platinum complex in order to maintain exponential growth.
The platinum complexes tested were cis-platin, a mono(platinum) complex of 6,6'-diamino-6,6'-dideoxy-1',2,3,3',4,4'-hexa-O-methylsucrose, a bis(platinum) complex of 6,6'-diamino-6,6'-dideoxy-1',2-anhydrosucrose and a tris(platinum) complex of 1',6,6' -triamino-1',6,6'-trideoxy-2,3,3',4,4'-penta-O-methylsucrose.

Lewis lung carcinoma [4] = assay: Effect on intraperitoneally implanted Lewis lung carcinoma in mice (Examples 10 and 12);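 note: C57BL/6 mice bearing Lewis lung tumor cells implanted intraperitoneally, treated intraperitoneally in distilled water starting day 1 after implantation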
Method: Young adult syngeneic C57BL/6 mice (ca. 17-19 grams) were implanted intraperitoneally with 3-5×10^5 Lewis Lung tumor cells. The respective diaminosucrose platinum (II) compounds were then administered intraperitoneally in distilled water commencing the first day after tumor implantation.
Lewis Lung tumor cells (3-5×10^5) were inoculated intraperitoneally (i.p.) into young adult syngeneic C57BL/6 mice (ca. 17-19g body weight). Administration of the platinum complexes (contained in 0.1 ml of distilled water) was started on day 1 after tumor implantation.

human KB cell cultures [5] = assay: Cytotoxicity test on human KB cell cultures (Examples 8 and 9); conditions: cells continuously cultured with the complex
Method: as §1, §2, §3, §4, §5

[6] = Solubility of sucrose platinum complexes; format: physicochemical; conditions: water, limits the dose
Lewis lung carcinoma [7] = assay: Effect of dose of sucrose bis(platinum) complex on intraperitoneally implanted Lewis lung carcinoma in mice (Example 13); format: in vivo
Method: The effect of dosage of the sucrose bis(platinum) complex on intraperitoneally implanted Lewis lung carcinoma cells was evaluated in mice. […] Administration of the complex (in 0.1 ml of distilled water) was effected on day 2 and day 4 after implantation.

P388 leukemia [8] = assay: Effect of sucrose bis(platinum) complex on P388 leukemia in syngeneic DBA/2 mice (Example 15); format: in vivo
From the text: The effect of the sucrose bis(platinum) complex on P388 leukemia cells in syngeneic DBA/2 mice was further evaluated.

P388 leukemia [9] = assay: Effect of dose of sucrose bis(platinum) complex on P388 leukemia in syngeneic DBA/2 mice (Example 14); format: in vivo; conditions: for Changes of body weight day 1 to 2 / Increase in life span / Mean survival time: day 1
Method: The effect of dose of sucrose bis(platinum complex on P388 leukemia cells in syngeneic DBA/2 mice was evaluated. A 0.1 ml of 10× dilution of P388 ascites (ca. 10^6 cells) was injected intraperitoneally (i.p.) into syngeneic DBA/2 mice (ca. 20 g body weight). The i.p. administration was effected on day 1 only. The bis(platinum) complex (1.0 mg/0.1 ml distilled water) had been stored for 77 days at 4° C. before administration.

[10] = 0.5 mg/mouse i.p., day 1, 2, 3, 6
[11] = 2 mg×2 i.p., listed as sucrose bis(platinum) complex

NCCN.O=C1[O][Pt][O]C(=O)C12CC2 [Sample No. 9, cis-(ethylenediamino-N,N')-1,1-cyclopropanedicarboxylatoplatinum]
cytotoxicity (in words) (human KB cell cultures [1]): more toxic than Sample No. 10 or Sample No. 6

N.N.[Cl][Pt][Cl] [Sample No. 1, Cis-dichlorodiamine platinum]
prevention of DNA replication (in words) (E. coli; listed as cisplatin): have the ability to prevent DNA replication in E. coli
saturability and inhibition of accumulation (in words) [2]: accumulation is not saturable up to 3 mM cisplatin and cannot be inhibited with structural analogs

N.N.[Cl-].[Cl-].[OH-].[OH-].[Pt+4] [cis, cis-diamine-dichloro-trans-dihydroxoplatinum (IV)]
prevention of DNA replication (in words) (E. coli): have the ability to prevent DNA replication in E. coli

N.N.[Cl][Pt]([Cl])([Cl])[Cl] [cis-cis-trans-diaminetetrachloroplatinum (IV)]
prevention of DNA replication (in words) (E. coli): have the ability to prevent DNA replication in E. coli

NC1C(O)OC(CO)C(O)C1O.[NH2][Pt]([Cl])[Cl] (centres unmarked) [Sample No. 11, N-(amminedichloroplatinato)-2-aminoglucose]
cytotoxicity (in words) (human KB cell cultures [1]): appears not to exhibit toxicity immediately but rather exhibits a delayed toxic response which occurs gradually during the incubation period

N.N.[Cl][Pt][Cl] [transplatin, trans-diamine-dichloroplatinum (II)]
prevention of DNA replication (in words) (E. coli): does not comprise this activity

COC1C(CN)OC(OC2(CN)OC(CN)C(OC)C2OC)C(OC)C1OC.[NH2][Pt]([Cl])[Cl].[NH2][Pt]([Cl])[Cl].[NH2][Pt]([Cl])[Cl] (stereo not drawn) [Sample No. 7, N,N',N"-tris[cis-amminedichloroplatinato]-1'6,6'-triamino-1',6,6'-trideoxy-2,3,3',4,4'-penta-O-methylsucrose]
Cytotoxicity (human KB cell cultures [3]; 7.9 nM, 10 days incubation): 3+ (66% of the treated cells appear to be dead)
Changes of body weight day 1 to 7 (Lewis lung carcinoma [4]; [10]): -0.8 g
Increase in life span (Lewis lung carcinoma [4]; [10]): > 255%
Mean survival days (Lewis lung carcinoma [4]; [10]): > 39.8 days
No. of mice survival/total (Lewis lung carcinoma [4]; [10]): 3/5
antitumor activity (in words) (Lewis lung carcinoma [4]; 0.5 mg×4 i.p.): remarkable antitumor activity
reduction of body weight (in words) (Lewis lung carcinoma [4]; 0.5 mg×4 i.p.): moderate reduction of body weight
survival and tumor-free outcome (in words) (Lewis lung carcinoma [4]; 0.5 mg×4 i.p., observation to day 50): Two mice died of tumor growth on day 22 and day 27. Three mice survived tumor-free until the end of the observation period (day 50)
reduction of body weight (in words) (Lewis lung carcinoma [4]; 0.5 mg×4 i.p., listed as sucrose tris(platinum) complex): moderate .reduction in body weight
minimum cytotoxic concentration (human KB cell cultures [5]): 10 µg/mL
aqueous solubility (in words) [6]: Larger dosages were not possible because of the solubility constraints
aqueous solubility (in words) ([6]; listed as sucrose tris(platinum) complex): limited solubility

N.N.NCC1OC2OC3(COC2C(O)C1O)OC(CN)C(O)C3O.[Cl][Pt][Cl].[Cl][Pt][Cl] (stereo not drawn) [Sample No. 6, N,N'-bis[cis-amminedichloroplatinato]-6,6'-diamino-6,6'-dideoxy-1',2-anhydrosucrose]
Cytotoxicity (human KB cell cultures [3]; 11.2 nM, 14 days incubation): 3+ (66% of the treated cells appear to be dead)
Changes of body weight day 1 to 7 (Lewis lung carcinoma [4]; 2 mg/mouse i.p., day 1, 3): -3.0 g
Increase in life span (Lewis lung carcinoma [4]; 2 mg/mouse i.p., day 1, 3): > 210%
Mean survival days (Lewis lung carcinoma [4]; 2 mg/mouse i.p., day 1, 3): > 43.4 days
No. of mice survival/total (Lewis lung carcinoma [4]; 2 mg/mouse i.p., day 1, 3): 3/5
antitumor activity (in words) (Lewis lung carcinoma [4]; 2 mg×2 i.p.): substantial antitumor activity
recovery, survival and tumor-free outcome (in words) (Lewis lung carcinoma [4]; 2 mg×2 i.p.): All of the mice treated, however, recovered the loss of body weight and were tumor-free by day 30
toxicity to the host / body weight (in words) (Lewis lung carcinoma [4]; 2 mg×2 i.p.): significant reduction of body weight
antitumor activity (in words) (Lewis lung carcinoma [4]; [11]): remarkable antitumor activity
recovery, survival and tumor-free outcome (in words) (Lewis lung carcinoma [4]; [11]): All the mice treated gradually recovered from the toxicity; however, 2 mice died of tumor growth on days 32 and 35. Three mice survived healthy and tumor-free up to the end of the observation period (day 50)
maximum tolerable dose (Lewis lung carcinoma [4]; i.p., per mouse, judged from body weight loss): ~2 mg×2
Changes of body weight day 1 to 7 (Lewis lung carcinoma [7]; 0.1 mg/mouse i.p., day 2, 4): +2.0 g
Increase in life span (Lewis lung carcinoma [7]; 0.1 mg/mouse i.p., day 2, 4): > 135%
Mean survival time (Lewis lung carcinoma [7]; 0.1 mg/mouse i.p., day 2, 4): > 48.8
antitumor activity (in words) (Lewis lung carcinoma [7]; 0.1 mg×2 i.p.): significant antitumor activity
tumor-free survival (in words) (Lewis lung carcinoma [7]; 0.1 mg×2 i.p., observation to day 50): Three mice survived healthy and tumor-free up to the end of the observation period (day 50)
minimum cytotoxic concentration (human KB cell cultures [5]): 10 µg/mL
Changes of body weight day 1 to 2 (P388 leukemia [8]; 1.0 mg/mouse i.p., day 1): -1.0 g
Increase in life span (P388 leukemia [8]; 1.0 mg/mouse i.p., day 1): > 89%
Mean survival time (P388 leukemia [8]; 1.0 mg/mouse i.p., day 1): > 16.6
prolongation of survival time over the controls (P388 leukemia [8]; dose of 1.0): 84%
antitumor activity / cure (in words) (P388 leukemia [8]; dose of 1.0, listed as sucrose bis(platinum) complex): significant antitumor activity; also recorded: one mouse appearing cured
antitumor activity (in words) (P388 leukemia [9]; 0.1 mg i.p.): no antitumor activity
Changes of body weight day 1 to 2 (P388 leukemia [9]; 0.1 mg/mouse i.p.): -0.2 g
Increase in life span (P388 leukemia [9]; 0.1 mg/mouse i.p.): 16%
Mean survival time (P388 leukemia [9]; 0.1 mg/mouse i.p.): > 8.8
antitumor activity (in words) (P388 leukemia [9]; 2 mg / high doses, i.p., listed as sucrose bis(platinum) complex): significant antitumor activity; also recorded: definite antitumor activity
Changes of body weight day 1 to 2 (P388 leukemia [9]; 2 mg/mouse i.p.): -1.5 g
Increase in life span (P388 leukemia [9]; 2 mg/mouse i.p.): > 111%
Mean survival time (P388 leukemia [9]; 2 mg/mouse i.p.): > 16.0
activity against P388 leukemia compared with cisplatin (in words) (P388 leukemia [9]; high doses): comparable to that of cisplatin against P388 leukemia
systemic toxicity (in words) (P388 leukemia [9]; high doses): still not toxic systemically

COCC1(OC2OC(CN)C(OC)C(OC)C2OC)OC(CN)C(OC)C1OC.O=C1[O][Pt][O]C(=O)C12CC2 (stereo not drawn) [Sample No. 5, N,N'-(cis-[1,1-cyclopropanedicarboxylato-platinato)]-6,6'-diamino-6,6'-dideoxy-1',2,3,3',4,4'-hexa-O-methylsucrose]
cytotoxicity (in words) (human KB cell cultures [1]): not very toxic

COCC1(OC2OC(CN)C(OC)C(OC)C2OC)OC(CN)C(OC)C1OC.[Cl][Pt][Cl] (stereo not drawn) [Sample No. 2, N-N'-(cis-dichloroplatinato)-6,6'-diamino-6,6'-dideoxy-1',2,3,3',4,4'-hexa-O-methylsucrose]
Changes of body weight day 1 to 7 (Lewis lung carcinoma [4]; 2 mg/mouse i.p., day 1, 3): +2.0 g
Increase in life span (Lewis lung carcinoma [4]; 2 mg/mouse i.p., day 1, 3): -1%
Mean survival days (Lewis lung carcinoma [4]; 2 mg/mouse i.p., day 1, 3): 13.8 days
No. of mice survival/total (Lewis lung carcinoma [4]; 2 mg/mouse i.p., day 1, 3): 0/5
antitumor activity (in words) (Lewis lung carcinoma [4]; 2 mg×2 i.p.): no antitumor activity
toxicity to the host / body weight (in words) (Lewis lung carcinoma [4]; 2 mg×2 i.p., listed as sucrose mono(platinum) complex): no antitumor activity nor toxicity to the host
minimum cytotoxic concentration (human KB cell cultures [5]): 125 µg/mL

Reference: patent US5449773A, “Platinum complexes of sucrose derivatives” (priority 1995, dated 1995)
